Numbers after ± are expanded uncertainties.
Conditions: Liquid, Closed cell (Static) method

| vapor or sublimation pressure (254.31 K) [kPa] | vapor or sublimation pressure (259.27 K) [kPa] | vapor or sublimation pressure (269.26 K) [kPa] | vapor or sublimation pressure (279.47 K) [kPa] | vapor or sublimation pressure (287.94 K) [kPa] | SMILES |
| --- | --- | --- | --- | --- | --- |
| 257 ± 10 | 303 ± 10 | 422 ± 10 | 574 ± 10 | 727 ± 10 | CCC [propane] |
| 127 ± 10 | 156 ± 10 | 231 ± 10 | 331 ± 10 | 437 ± 10 | CC(F)F [1,1-difluoroethane] |
